# Patent US9290496B2, “Purine derivatives” (PFIZER INC., priority 2013, dated 2016)
# Key:
# Type in all cases: cell-based
# [1] = biological target: T1, EGFR L858R+T790M, endogenous (NCI-H1975) (Homo sapiens, UniProt P00533, L858R/T790M); assay: pEGFR Y1068 ELISA assay, NCI-H1975 cells; settings: inhibition of phosphorylation of EGFR at Tyr1068; NCI-H1975 NSCLC cells; 2 hr compound incubation
# T1 construct: NCI-H1975 (EGFR L858R+T790M, endogenous); host or cells: NCI-H1975
# [2] = biological target: T2, EGFR del/T790M (PC9-DRH) (Homo sapiens, UniProt P00533, DEL746-750/T790M); assay: pEGFR Y1068 ELISA assay, PC9-DRH cells; settings: inhibition of phosphorylation of EGFR at Tyr1068; PC9-DRH cells (dacomitinib resistant); 2 hr compound incubation
# T2 construct: detects endogenous levels of phospho-EGF Receptor (Tyr1068) protein; endogenous in cells; host or cells: PC9-DRH (dacomitinib-resistant derivative of PC9, generated in house)
# Method: The PathScan® Phospho-EGF Receptor (Tyr1068) Sandwich ELISA Kit is a solid phase sandwich enzyme-linked immunosorbent assay (ELISA) that detects endogenous levels of phospho-EGF Receptor (Tyr1068) protein. […] NCI-H3255 cells were licensed from NCI. […] All cells were cultured according to ATCC recommendations. A549, NCI-H1975, PC9, and NCI-H3255 cells were grown in RPMI media (Invitrogen, Carlsbad, Calif.) supplemented with 10% FBS (Sigma, St Louis, Mo.), and with 1% Penn/Strep (Invitrogen).
# Each compound was prepared as a DMSO stock solution (10 mM). Compounds were tested in duplicate on each plate, with an 11-point serial dilution curve (1:3 dilution). Compound treatment (50 μL) was added from the compound dilution plate to the cell plate. […] Plates were then incubated for 2 hr at 37° C., 5% CO2. […] The wash was then flicked off and ice-cold lysis buffer was added to the cells (50 μL/well). The plate was shaken for 20-30 min at 4° C. to completely lyse the cells. Sample diluent (50 μL/well) was added to the ELISA plate, and the lysate (50 μL) was diluted into the sample diluent in each well of the ELISA plate. Plates were sealed and incubated overnight at 4° C. with shaking. The next day, wells were washed four times with 1× Wash Buffer; plates were taped on lint-free paper after the final wash prior to adding Add Detection Antibody (green, 100 μL/well) to each well and incubating for 1 hr at 37° C. After incubation, wells were washed as described. HRP-Linked secondary antibody (red, 100 μL/well) was added to each well and incubated for 30 min at 37° C. After incubation, the wells were washed as described. TMB Substrate (100 μL/well) was added to each well and the plate incubated for 10 min at 37° C. or 30 min at rt maximum. Stop Solution (100 μL/well) was added to each well at the end of the incubation and plates were shaken gently for a few seconds. […] Data were analyzed using a four-parameter fit in Microsoft Excel.
# [3] = biological target: T3, EGFR wildtype, endogenous (A549) (Homo sapiens, UniProt P00533); assay: pEGFR Y1068 ELISA assay, A549 cells; settings: inhibition of phosphorylation of EGFR at Tyr1068; A549 NSCLC cells; 2 hr compound incubation, then stimulated 10 min with EGF (40 ng/mL)
# T3 construct: A549 (EGFR wildtype, endogenous); host or cells: A549 (stimulated with EGF)
# T3 sequence (P00533 25-1210): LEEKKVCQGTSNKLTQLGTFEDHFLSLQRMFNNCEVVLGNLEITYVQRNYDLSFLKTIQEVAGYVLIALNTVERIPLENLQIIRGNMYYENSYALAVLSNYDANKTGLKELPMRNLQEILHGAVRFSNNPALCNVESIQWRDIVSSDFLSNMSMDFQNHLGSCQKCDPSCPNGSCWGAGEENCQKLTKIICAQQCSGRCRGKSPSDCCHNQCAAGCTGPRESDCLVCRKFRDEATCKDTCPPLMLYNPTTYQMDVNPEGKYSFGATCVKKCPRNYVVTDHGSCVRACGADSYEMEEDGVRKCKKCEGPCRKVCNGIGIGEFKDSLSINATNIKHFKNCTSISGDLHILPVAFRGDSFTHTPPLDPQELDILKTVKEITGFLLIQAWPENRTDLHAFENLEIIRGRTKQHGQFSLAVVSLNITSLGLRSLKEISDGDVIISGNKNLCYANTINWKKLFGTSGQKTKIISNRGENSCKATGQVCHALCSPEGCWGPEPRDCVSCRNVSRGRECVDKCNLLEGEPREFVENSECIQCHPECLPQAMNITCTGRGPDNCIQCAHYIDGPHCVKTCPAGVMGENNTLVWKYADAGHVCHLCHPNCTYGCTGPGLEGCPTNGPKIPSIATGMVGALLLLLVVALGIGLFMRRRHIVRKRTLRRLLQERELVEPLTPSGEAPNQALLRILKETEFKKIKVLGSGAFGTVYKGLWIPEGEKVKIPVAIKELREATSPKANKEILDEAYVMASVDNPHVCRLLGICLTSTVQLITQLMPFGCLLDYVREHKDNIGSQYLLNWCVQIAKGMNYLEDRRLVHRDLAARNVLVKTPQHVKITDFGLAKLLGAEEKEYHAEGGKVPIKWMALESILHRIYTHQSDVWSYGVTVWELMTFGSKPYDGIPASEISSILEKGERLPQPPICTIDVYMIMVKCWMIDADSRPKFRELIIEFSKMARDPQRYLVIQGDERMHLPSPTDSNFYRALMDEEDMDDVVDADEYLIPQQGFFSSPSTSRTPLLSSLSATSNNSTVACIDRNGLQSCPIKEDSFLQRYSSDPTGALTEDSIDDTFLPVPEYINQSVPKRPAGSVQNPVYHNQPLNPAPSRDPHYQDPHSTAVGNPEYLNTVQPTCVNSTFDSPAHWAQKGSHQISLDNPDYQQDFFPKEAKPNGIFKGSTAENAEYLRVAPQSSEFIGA
# Method: Phosphorylation of EGFR at Y1068 was measured by PathScan® Phospho-EGF Receptor (Try1068) Sandwich ELISA kit (#7240, Cell Signaling Technology®, Danvers, Mass.). The PathScan® Phospho-EGF Receptor (Tyr1068) Sandwich ELISA Kit is a solid phase sandwich enzyme-linked immunosorbent assay (ELISA) that detects endogenous levels of phospho-EGF Receptor (Tyr1068) protein. […] All cells were cultured according to ATCC recommendations. A549, NCI-H1975, PC9, and NCI-H3255 cells were grown in RPMI media (Invitrogen, Carlsbad, Calif.) supplemented with 10% FBS (Sigma, St Louis, Mo.), and with 1% Penn/Strep (Invitrogen). PC9-DRH cells were grown in RPMI with 10% FBS and 1 μM dacomitinib.
# Cells were plated at 40,000/well in complete culture media (50 μL/well) on the bottom of clear tissue culture treated microtiter plates (#3595, Corning Inc, Corning, N.Y.) and allowed to adhere overnight at 37° C., 5% CO2. The following day, compound dilution plates were prepared in 96 well clear V-bottom 0.5 mL polypropylene block plates (#3956, Corning, Inc). Each compound was prepared as a DMSO stock solution (10 mM). Compounds were tested in duplicate on each plate, with an 11-point serial dilution curve (1:3 dilution). Compound treatment (50 μL) was added from the compound dilution plate to the cell plate. […] Plates were then incubated for 2 hr at 37° C., 5% CO2. For A549 (EGFR wildtype) assay, cells were plated in full-serum (10%) media for 24 hr prior to compound treatment; cells were treated in full serum media as described and then stimulated for 10 min with EGF (40 ng/mL/starvation media, Invitrogen). Immediately prior to the end of the incubation, ice-cold lysis buffer was prepared (1× Cell Lysis Buffer (#9803, Cell Signaling Technology), 1 mM sodium orthovanadate (Na3VO4, #96508, Sigma), 1 mM phenylmethanesulfonyl fluoride (PMSF, 52332, CalBiochem/EMD Chemicals), complete Mini EDTA-free Protease Inhibitor Cocktail Tablet (1 tablet/10 mL, #11836170001, Roche, Indianapolis, Ind.), and PhosSTOP Phosphatase Inhibitor Cocktail Tablet (1 tablet/10 mL, #04906837001, Roche) in pure water. At the end of 2 hr, media was flicked off and cells were washed once with ice-cold 1 mM Na3VO4 in PBS (100 μL/well, Invitrogen). The wash was then flicked off and ice-cold lysis buffer was added to the cells (50 μL/well). The plate was shaken for 20-30 min at 4° C. to completely lyse the cells. Sample diluent (50 μL/well) was added to the ELISA plate, and the lysate (50 μL) was diluted into the sample diluent in each well of the ELISA plate. Plates were sealed and incubated overnight at 4° C. with shaking. The next day, wells were washed four times with 1× Wash Buffer; plates were taped on lint-free paper after the final wash prior to adding Add Detection Antibody (green, 100 μL/well) to each well and incubating for 1 hr at 37° C. After incubation, wells were washed as described. HRP-Linked secondary antibody (red, 100 μL/well) was added to each well and incubated for 30 min at 37° C. After incubation, the wells were washed as described. TMB Substrate (100 μL/well) was added to each well and the plate incubated for 10 min at 37° C. or 30 min at rt maximum. Stop Solution (100 μL/well) was added to each well at the end of the incubation and plates were shaken gently for a few seconds. Absorbance was read at 450 nm within 30 min after addition of Stop Solution on a PerkinElmer EnVision Excite Multilabel Reader Method for Absorbance or on a Molecular Devices SpectraMax^384 Reader for absorbance. Data were analyzed using a four-parameter fit in Microsoft Excel.
# T2 sequence (P00533 with tags, fused parts or gaps DEL746-750/T790M): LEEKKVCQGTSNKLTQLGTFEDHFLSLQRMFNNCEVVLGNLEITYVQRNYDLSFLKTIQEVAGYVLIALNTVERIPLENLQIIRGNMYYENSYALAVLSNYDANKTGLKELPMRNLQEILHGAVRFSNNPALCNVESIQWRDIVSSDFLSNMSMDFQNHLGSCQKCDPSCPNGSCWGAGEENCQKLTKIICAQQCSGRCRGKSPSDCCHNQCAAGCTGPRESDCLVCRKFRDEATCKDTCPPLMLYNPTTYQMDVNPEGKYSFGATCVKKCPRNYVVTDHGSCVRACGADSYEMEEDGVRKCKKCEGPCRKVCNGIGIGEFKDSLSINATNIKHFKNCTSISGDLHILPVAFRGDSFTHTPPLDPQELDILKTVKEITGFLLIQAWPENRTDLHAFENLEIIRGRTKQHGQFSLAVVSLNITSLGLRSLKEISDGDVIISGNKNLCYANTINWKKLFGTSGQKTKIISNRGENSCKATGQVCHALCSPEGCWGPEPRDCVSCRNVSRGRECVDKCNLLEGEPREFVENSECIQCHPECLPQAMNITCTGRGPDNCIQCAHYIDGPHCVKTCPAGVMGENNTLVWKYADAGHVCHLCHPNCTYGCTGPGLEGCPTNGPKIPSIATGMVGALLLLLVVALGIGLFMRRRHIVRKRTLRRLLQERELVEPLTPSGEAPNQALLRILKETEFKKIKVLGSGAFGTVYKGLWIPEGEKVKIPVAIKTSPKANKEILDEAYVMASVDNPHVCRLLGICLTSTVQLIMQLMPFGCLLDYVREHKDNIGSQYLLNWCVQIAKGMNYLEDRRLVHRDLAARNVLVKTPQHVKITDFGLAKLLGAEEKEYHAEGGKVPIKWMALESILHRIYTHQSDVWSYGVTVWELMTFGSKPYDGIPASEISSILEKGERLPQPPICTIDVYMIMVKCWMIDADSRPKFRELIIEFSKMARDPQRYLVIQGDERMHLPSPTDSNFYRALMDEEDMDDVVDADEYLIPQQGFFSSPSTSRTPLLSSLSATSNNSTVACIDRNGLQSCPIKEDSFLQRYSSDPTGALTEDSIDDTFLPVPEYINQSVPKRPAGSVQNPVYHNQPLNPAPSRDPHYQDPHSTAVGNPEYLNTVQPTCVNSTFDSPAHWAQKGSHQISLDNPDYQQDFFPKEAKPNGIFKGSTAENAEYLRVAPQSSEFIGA
# T1 sequence (P00533 25-1210 T790M/L858R): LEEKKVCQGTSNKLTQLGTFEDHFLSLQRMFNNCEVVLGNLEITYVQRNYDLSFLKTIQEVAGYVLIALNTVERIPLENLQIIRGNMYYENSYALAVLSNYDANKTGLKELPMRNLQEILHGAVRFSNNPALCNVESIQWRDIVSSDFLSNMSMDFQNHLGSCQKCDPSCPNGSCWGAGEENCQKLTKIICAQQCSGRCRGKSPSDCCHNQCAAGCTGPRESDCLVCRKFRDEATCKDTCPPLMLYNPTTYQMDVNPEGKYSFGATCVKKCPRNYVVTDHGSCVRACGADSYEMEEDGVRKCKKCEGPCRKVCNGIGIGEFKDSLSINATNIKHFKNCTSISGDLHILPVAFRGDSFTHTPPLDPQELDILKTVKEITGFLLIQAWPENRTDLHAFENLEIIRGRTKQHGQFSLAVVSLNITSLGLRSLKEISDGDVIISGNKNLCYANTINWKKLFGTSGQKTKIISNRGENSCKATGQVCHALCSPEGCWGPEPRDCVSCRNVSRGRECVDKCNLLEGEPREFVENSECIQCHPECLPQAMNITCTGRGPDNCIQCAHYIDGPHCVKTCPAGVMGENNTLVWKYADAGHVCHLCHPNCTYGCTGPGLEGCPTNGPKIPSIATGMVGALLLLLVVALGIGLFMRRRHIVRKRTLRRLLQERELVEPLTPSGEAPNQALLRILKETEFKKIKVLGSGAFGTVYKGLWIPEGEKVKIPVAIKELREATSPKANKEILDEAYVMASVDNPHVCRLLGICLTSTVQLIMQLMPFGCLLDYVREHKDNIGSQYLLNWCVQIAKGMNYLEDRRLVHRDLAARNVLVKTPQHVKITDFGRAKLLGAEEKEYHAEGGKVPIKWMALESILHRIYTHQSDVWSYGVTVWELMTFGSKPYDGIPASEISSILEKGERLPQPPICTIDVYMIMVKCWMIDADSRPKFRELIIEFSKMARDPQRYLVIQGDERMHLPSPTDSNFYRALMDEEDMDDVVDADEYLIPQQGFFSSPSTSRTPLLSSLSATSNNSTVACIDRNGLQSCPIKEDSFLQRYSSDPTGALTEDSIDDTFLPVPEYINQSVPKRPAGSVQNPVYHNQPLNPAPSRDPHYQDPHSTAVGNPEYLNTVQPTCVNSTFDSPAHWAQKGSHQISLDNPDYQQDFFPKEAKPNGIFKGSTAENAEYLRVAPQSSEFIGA
SMILES,IC50 [1] [nM],IC50 [2] [nM],IC50 [3] [nM]
"C=CC(=O)N1CC[C@@H](Nc2nc(Nc3ccc(N4CCN(C)CC4)cc3)c3ncn(C(C)C)c3n2)C1 [Example 27, (R)-1-(3-((9-isopropyl-6-((4-(4-methylpiperazin-1-yl)phenyl)amino)-9H-purin-2-yl)amino)pyrrolidin-1-yl)prop-2-en-1-one]",29,–,387
"C=CC(=O)N(C)[C@H]1C[C@H](Nc2nc(Nc3ccc(N4CCN(C)CC4)cc3)c3ncn(C(C)C)c3n2)C1 [Example 28, N-((trans)-3-((9-isopropyl-6-((4-(4-methylpiperazin-1-yl)phenyl)amino)-9H-purin-2-yl)amino)cyclobutyl)-N-methylacrylamide]",48,–,723
"C=CC(=O)N(C)C1CN(c2nc(Nc3cnn(C)c3)c3ncn(C(C)C)c3n2)C1 [Example 31, N-(1-(9-isopropyl-6((1-methyl-1H-pyrazol-4-yl)amino)-9H-purin-2-yl)azetidin-3-yl)-N-methylacrylamide]",76,–,1350
"C=CC(=O)N1CC(C)(Nc2nc(Nc3cnn(C)c3)c3ncn(C(C)C)c3n2)C1 [Example 32, 1-(3-((9-isopropyl-6-((1-methyl-1H-pyrazol-4-yl)amino)-9H-purin-2-yl)amino)-3-methylazetidin-1-yl)prop-2-en-1-one]",65,–,1230
"C=CC(=O)N1C[C@@H]2CN(c3nc(Nc4cnn(C)c4)c4ncn(C)c4n3)C[C@@H]2C1 [Example 34, 1-((cis)-5-(9-methyl-6-((1-methyl-1H-pyrazol-4-yl)amino)-9H-purin-2-yl)hexahydropyrrolo[3,4-c]pyrrol-2(1H)-yl)prop-2-en-1-one]",161,–,2670
"C=CC(=O)N[C@H]1CCN(c2nc(Nc3cn(C)nc3C)c3ncn(C(C)C)c3n2)C1 [Example 37, (S)-N-(1-(6-((1,3-dimethyl-1H-pyrazol-4-yl)amino)-9-isopropyl-9H-purin-2-yl)pyrrolidin-3-yl)acrylamide]",391,–,7610
"C=CC(=O)N[C@H]1CCN(c2nc(Nc3ccc(N4CCN(C)CC4)cc3)c3ncn(C(C)CO)c3n2)C1 (stereo partly drawn) [Example 48, N-((3S)-1-(9-(1-hydroxypropan-2-yl)-6-((4-(4-methylpiperazin-1-yl)phenyl)amino) -9H-purin-2-yl)pyrrolidin-3-yl)acrylamide]",204,–,4360
"C=CC(=O)N[C@H]1CCN(c2nc(Nc3cnn(C)c3)c3ncn(C4(C)CC4)c3n2)C1 [Example 60, (S)-N-(1-(6-((1-methyl-1H-pyrazol-4-yl)amino)-9-(1-methylcyclopropyl)-9H-purin-2-yl)pyrrolidin-3-yl)acrylamide]",317,–,1390
"C=CC(=O)N[C@H]1CCN(c2nc(Nc3cnn([C@H]4CCN(C)C4)c3)c3ncn(C(C)C)c3n2)C1 [Example 69, N—((S)-1-(9-isopropyl-6-((1-((S)-1-methylpyrrolidin-3-yl)-1H-pyrazol-4-yl)amino) -9H-purin-2-yl)pyrrolidin-3-yl)acrylamide]",37,–,712
"C=CC(=O)N[C@@H]1CN(c2nc(Nc3cnn(C4CCN(C)CC4)c3)c3ncn(C(C)(C)C)c3n2)C[C@H]1F [Example 70, N-((3R,4R)-1-(9-(tert-butyl)-6-((1-(1-methylpiperidin-4-yl)-1H-pyrazol-4-yl)amino) -9H-purin-2-yl)-4-fluoropyrrolidin-3-yl)acrylamide]",29,–,609
"C=CC(=O)N[C@@H]1CN(c2nc(Nc3cn(CC(C)O)nc3OC)c3ncn(C)c3n2)C[C@H]1F (stereo partly drawn) [Example 83, N-((3R,4R)-4-fluoro-1-(6-((1-(2-hydroxypropyl)-3-methoxy-1H-pyrazol-4-yl)amino)-9-methyl-9H-purin-2-yl)pyrrolidin-3-yl)acrylamide]",132,–,3450
"C=CC(=O)N[C@@H]1CN(c2nc(Nc3cn(CC(C)O)nc3OC)c3ncn(CC)c3n2)C[C@H]1F (stereo partly drawn) [Example 86, N-((3R,4R)-1-(9-ethyl-6-((1-(2-hydroxypropyl)-3-methoxy-1H-pyrazol-4-yl)amino) -9H-purin-2-yl)-4-fluoropyrrolidin-3-yl)acrylamide]",32,–,1220
"C=CC(=O)N[C@@H]1CN(c2nc(Nc3ccc(N4CCC(N(C)C)CC4)cc3)c3ncn(C(C)C)c3n2)C[C@H]1F [Example 89, N-((3R,4R)-1-(6-((4-(4-(dimethylamino)piperidin-1-yl)phenyl)amino)-9-isopropyl-9H-purin-2-yl)-4-fluoropyrrolidin-3-yl)acrylamide]",–,3,–
"C=CC(=O)N[C@@H]1CN(c2nc(Nc3ccc(N4CCC(N(C)C)CC4)cc3OC)c3ncn(C(C)C)c3n2)C[C@H]1F [Example 90, N-((3R,4R)-1-(6-((4-(4-(dimethylamino)piperidin-1-yl)-2-methoxyphenyl)amino)-9-isopropyl-9H-purin-2-yl)-4-fluoropyrrolidin-3-yl)acrylamide]",–,9,–

# Further compounds by falling IC50 [1], results first:
IC50 [1] [nM],IC50 [2] [nM],IC50 [3] [nM],SMILES
25,–,682,"C=CC(=O)N1CC[C@@H](Oc2nc(Nc3ccc(N4CCN(C)CC4)cc3)c3ncn(C(C)C)c3n2)C1 [Example 26, (R)-1-(3-((9-isopropyl-6-((4-(4-methylpiperazin-1-yl)phenyl)amino)-9H-purin-2-yl)oxy)pyrrolidin-1-yl)prop-2-en-1-one]"
20,–,167,"C=CC(=O)N[C@@H]1CN(c2nc(Nc3cnn(C4CCN(C)CC4)c3)c3ncn(C(C)C)c3n2)C[C@H]1F [Example 71, N-((3R,4R)-4-fluoro-1-(9-isopropyl-6-((1-(1-methylpiperidin-4-yl)-1H-pyrazol-4-yl)amino)-9H-purin-2-yl)pyrrolidin-3-yl)acrylamide]"
18,–,707,"C=CC(=O)N[C@@H]1CN(c2nc(Nc3cnn(CCN(C)C)c3)c3ncn(C(C)(C)C)c3n2)C[C@H]1F [Example 68, N-((3R,4R)-1-(9-(tert-butyl)-6-((1-(2-(dimethylamino)ethyl)-1H-pyrazol-4-yl)amino)-9H-purin-2-yl)-4-fluoropyrrolidin-3-yl)acrylamide]"
11,–,95,"C=CC(=O)N[C@H]1CCN(c2nc(Nc3ccc(N4CCN(C)CC4)cc3)c3ncn(CC)c3n2)C1 [Example 35, (S)-N-(1-(9-ethyl-6-((4-(4-methylpiperazin-1-yl)phenyl)amino)-9H-purin-2-yl)pyrrolidin-3-yl)acrylamide]"
10,25,194,"C=CC(=O)N1C[C@@H](F)[C@H](Nc2nc(Nc3ccc(N4CCN(C)CC4)cc3)c3ncn(C(C)C)c3n2)C1 (relative stereo) [Example 19, 1-((trans)-3-fluoro-4-((9-isopropyl-6-((4-(4-methylpiperazin-1-yl)phenyl)amino) -9H-purin-2-yl)amino)pyrrolidin-1-yl)prop-2-en-1-one]"
8,–,90,"C=CC(=O)N[C@H]1CN(c2nc(Nc3cnn(CCN(C)C)c3)c3ncn(C(C)C)c3n2)C[C@@H]1F [Example 67, N-((3S,4S)-1-(6-((1-(2-(dimethylamino)ethyl)-1H-pyrazol-4-yl)amino)-9-isopropyl-9H-purin-2-yl)-4-fluoropyrrolidin-3-yl)acrylamide]"
